Data: US12371454B2, “Cyclic peptide compound having Kras inhibitory action” (priority 2019, dated 2025)
Starred links: 1 amine or outer side, 2 acyl side, 3 side chain; linkers in the order of their positions; H or OH if unused. Positions of bridges follow the written chain, without caps; N, C: chain ends. Non-standard residues stand in square brackets, D forms with d. Residues, ends and D or L forms follow the SMILES beside them. *: point of attachment. hPhe(3-Cl-4-CF3) = N[C@@H](CCc1ccc(C(F)(F)F)c(Cl)c1)C(=O)O; NMePhe(3-CN) = CN[C@@H](Cc1cccc(C#N)c1)C(=O)O; NMe3Pal(6-Me) = CN[C@@H](Cc1ccc(C)nc1)C(=O)O; NMePhe(4-Br) = CN[C@@H](Cc1ccc(Br)cc1)C(=O)O; NMePhe(4-Cl) = CN[C@@H](Cc1ccc(Cl)cc1)C(=O)O; NMePhe(2-CN) = CN[C@@H](Cc1ccccc1C#N)C(=O)O; NMePhe(4-Me) = CN[C@@H](Cc1ccc(C)cc1)C(=O)O; X56 = O=C([C@H](Cc1cc(F)ccc1F)N[*:1])[*:2]; NMedβ3hAla = C[C@H](CC(=O)[*:2])N(C)[*:1]; Phe(3-I) = N[C@@H](Cc1cccc(I)c1)C(=O)O; NMeY = CN[C@@H](Cc1ccc(O)cc1)C(=O)O; NMeCha = CN[C@@H](CC1CCCCC1)C(=O)O; NMeChg = CN[C@H](C(=O)O)C1CCCCC1; NMeF = CN[C@@H](Cc1ccccc1)C(=O)O; NMeI = CC[C@H](C)[C@H](NC)C(=O)O; NMeD = CN[C@@H](CC(=O)O)C(=O)O; NMeL = CN[C@@H](CC(C)C)C(=O)O; NMeV = CN[C@H](C(=O)O)C(C)C; d(β3hA) = C[C@@H](N)CC(=O)O; NMeAbu = CC[C@H](NC)C(=O)O; NMeA = CN[C@@H](C)C(=O)O; NMeAib = CNC(C)(C)C(=O)O; Nle = CCCC[C@H](N)C(=O)O; Piperidide = C1CCN(*)CC1; Pra = C#CC[C@H](N)C(=O)O; Ac5c = NC1(C(=O)O)CCCC1; Aze = O=C(O)[C@@H]1CCN1; Sar = CNCC(=O)O

What follows are compounds tested against T1, Kras and SOS1 (biotin-tagged human Kras loaded with GDP, His-tagged human SOS1) (Homo sapiens, UniProt P01116, G12D) (assay: Protein-protein interaction inhibition between Kras and SOS1 (KrasGl2D-SOS PPI) using AlphaScreen). Conditions: AlphaScreen; biotin-tagged human Kras loaded with GDP, His-tagged human SOS1; read-out: KRAS G12D-SOS PPI IC50.
T1 construct: made in house; host or cells: E. coli (stated for Kras only)
Type: binding
How it was run: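 Read-out is acceptor-bead light at 520-620 nm, arising when 680 nm-irradiated nickel donor beads pass singlet oxygen to streptavidin acceptors. The bead pair links His-tagged SOS1 with biotin-tagged, GDP-bound Kras from E. coli.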

T1 sequence (P01116 1-188 isoform P01116-2 G12D): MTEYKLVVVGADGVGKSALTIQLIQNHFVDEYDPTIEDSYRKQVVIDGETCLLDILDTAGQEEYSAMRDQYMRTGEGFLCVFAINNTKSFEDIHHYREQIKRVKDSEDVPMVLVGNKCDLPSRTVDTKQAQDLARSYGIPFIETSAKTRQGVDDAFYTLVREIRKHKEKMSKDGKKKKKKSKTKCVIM

Row | SMILES | IC50
1 | CC[C@H](C)[C@@H]1NC(=O)[C@H](C)N(C)C(=O)C[C@@H](C(=O)N(C)C)N(C)C(=O)[C@H]([C@@H](C)CC)N(C)C(=O)C2(CCCC2)NC(=O)[C@H](Cc2cccc(C#N)c2)N(C)C(=O)[C@H](CCc2ccc(C(F)(F)F)c(Cl)c2)NC(=O)CN(C)C(=O)[C@H](Cc2ccc(C)cc2)N(C)C(=O)[C@@H]2CCN2C(=O)[C@H](C)N(C)C1=O [Compound 1981] ([NMeA]I[NMeA][Aze][NMePhe(4-Me)][Sar][hPhe(3-Cl-4-CF3)][NMePhe(3-CN)][Ac5c][NMeI][NMeD]-NMe2; lactam N-11) | 0.0051 µM
2 | CCCC[C@@H]1NC(=O)[C@H](Cc2cc(F)ccc2F)NC(=O)CN(C)C(=O)[C@H](Cc2ccc(OC)cc2)N(C)C(=O)[C@@H]2CCN2C(=O)[C@H](C)N(C)C(=O)[C@H]([C@@H](C)CC)NC(=O)[C@H](CC)N(C)C(=O)C[C@@H](C(=O)N2CCCCC2)N(C)C(=O)[C@H](CC(C)C)NC(=O)C(C)(C)N(C)C1=O [Compound 1268] ([NMeAbu]I[NMeA][Aze][NMeY](Me)[Sar][X56][Nle][NMeAib]L[NMeD]-Piperidide; lactam N-11) | 0.019 µM
3 | CC[C@H](C)[C@@H]1NC(=O)[C@H](CC(C)C)N(C)C(=O)C[C@@H](C(=O)N2CCCCC2)N(C)C(=O)[C@H](C2CCCCC2)N(C)C(=O)C2(CCCC2)NC(=O)[C@H](Cc2ccc(C)nc2)N(C)C(=O)[C@H](CCc2ccc(C(F)(F)F)c(Cl)c2)NC(=O)CN(C)C(=O)[C@H](CC2CCCCC2)N(C)C(=O)[C@@H]2CCN2C(=O)CN(C)C1=O [Compound 786] ([NMeL]I[Sar][Aze][NMeCha][Sar][hPhe(3-Cl-4-CF3)][NMe3Pal(6-Me)][Ac5c][NMeChg][NMeD]-Piperidide; lactam N-11) | 0.006 µM
4 | CC[C@H](C)[C@@H]1NC(=O)[C@H](C)N(C)C(=O)C[C@@H](C)NC(=O)[C@H](C(C)C)N(C)C(=O)[C@H](Cc2ccccc2)N(C)C(=O)[C@H](CC(C)C)N(C)C(=O)[C@H](CCc2ccc(C(F)(F)F)c(Cl)c2)NC(=O)CN(C)C(=O)[C@H](Cc2ccc(Cl)cc2)N(C)C(=O)[C@@H]2CCN2C(=O)CN(C)C1=O [Compound 994] (cyclo([Aze][NMePhe(4-Cl)][Sar][hPhe(3-Cl-4-CF3)][NMeL][NMeF][NMeV][d(β3hA)][NMeA]I[Sar])) | 0.011 µM
5 | C#CC[C@@H]1NC(=O)[C@H](Cc2cccc(I)c2)NC(=O)CN(C)C(=O)[C@H](Cc2ccc(Cl)cc2)N(C)C(=O)CN(C)C(=O)CN(C)C(=O)[C@H]([C@@H](C)CC)NC(=O)[C@H](CC(C)C)N(C)C(=O)C[C@@H](C(=O)N2CCCCC2)N(C)C(=O)[C@H](CC(C)C)NC(=O)C(C)(C)N(C)C1=O [Compound 1426] ([NMeL]I[Sar][Sar][NMePhe(4-Cl)][Sar][Phe(3-I)][Pra][NMeAib]L[NMeD]-Piperidide; lactam N-11) | 0.048 µM
6 | CC[C@H](C)[C@@H]1NC(=O)[C@H](CC(C)C)N(C)C(=O)C[C@@H](C(=O)N2CCCCC2)N(C)C(=O)[C@H](C(C)C)N(C)C(=O)C2(CCCC2)NC(=O)[C@@H]2CCCN2C(=O)[C@H](CCc2ccc(C(F)(F)F)c(Cl)c2)NC(=O)CN(C)C(=O)[C@H](Cc2ccccc2C#N)N(C)C(=O)CN(C)C(=O)CN(C)C1=O [Compound 935] ([NMeL]I[Sar][Sar][NMePhe(2-CN)][Sar][hPhe(3-Cl-4-CF3)]P[Ac5c][NMeV][NMeD]-Piperidide; lactam N-11) | 0.006 µM
7 | CC[C@H](C)[C@@H]1NC(=O)[C@H](CC(C)C)N(C)C(=O)C[C@@H](C)N(C)C(=O)[C@H](C2CCCCC2)N(C)C(=O)C2(CCCC2)NC(=O)[C@@H]2CCCN2C(=O)[C@H](CCc2ccc(C(F)(F)F)c(Cl)c2)NC(=O)CN(C)C(=O)[C@H](CC2CCCCC2)N(C)C(=O)[C@@H]2CCN2C(=O)[C@H](C)N(C)C1=O [Compound 1813] (cyclo([Ac5c][NMeChg][NMedβ3hAla][NMeL]I[NMeA][Aze][NMeCha][Sar][hPhe(3-Cl-4-CF3)]P)) | 0.036 µM
8 | CC[C@H](C)[C@@H]1NC(=O)[C@H](C)N(C)C(=O)C[C@@H](C(=O)N(C)C)N(C)C(=O)[C@H]([C@@H](C)CC)N(C)C(=O)C2(CCCC2)NC(=O)[C@H](Cc2ccc(Br)cc2)N(C)C(=O)[C@H](CCc2ccc(C(F)(F)F)c(Cl)c2)NC(=O)CN(C)C(=O)[C@H](Cc2ccc(C)cc2)N(C)C(=O)[C@@H]2CCN2C(=O)[C@H](C)N(C)C1=O [Compound 1893] ([NMeA]I[NMeA][Aze][NMePhe(4-Me)][Sar][hPhe(3-Cl-4-CF3)][NMePhe(4-Br)][Ac5c][NMeI][NMeD]-NMe2; lactam N-11) | 0.014 µM
